Assays:
[1] = Aqueous solubility, pH dependent; type: physicochemical
[2] = Chemical stability pH dependent at 25° C.; type: physicochemical
Procedure: B. Chemical Stability pH Dependent at 25° C.

[3] = Thermal stability, 120° C. for 10 min; type: physicochemical
Procedure: C. Thermal Stability—120° C. for 10 min.

[4] = Bioreversion: plasma stability, porcine plasma; type: in vitro ADME
[5] = Porcine buccal tissue homogenate stability; type: in vitro ADME; settings: protein concentration 2 mg/ml
Procedure: (§1) b. Porcine Buccal Tissue Homogenate Stability
(§2) Protein Concentration 2 mg/ml

[6] = Control (IPBS) stability for the buccal homogenate study; type: physicochemical
Procedure: as §1, §2

[7] = Plasma THC from HME buccal patches in swine model; type: in vivo
Procedure: THC was used as control formulation. Plasma was sampled from each animal at predetermined times and the amount of THC in the plasma was determined.
FIG. 20: Plasma THC concentrations as a function of time from THC-Val-HS loaded HME buccal patches. Data represents the mean value from 4 pigs. The animals were maintained under anesthesia for the first 4 hours and were then allowed to come out of anesthesia and given access to food and water.
A dose dependent plasma concentration time profile was then evaluated.
Plasma THC concentrations as a function of time and dose from THC-Val-HS loaded HME patches. Data represents the mean value. The animals for maintained under anesthesia for the first 4 hours and were then allowed to come out of anesthesia and given access to food and water.

[8] = Maximum amount dissolved in topical formulations; type: physicochemical
[9] = Stability of THC-Val-HS HME transmucosal patch; settings: for Assay (as a % of theoretical amount): HME transmucosal patch
[10] = Plasma THC after rectal suppository (PEG 1000) in rat; settings: polyethylene glycol 1000 base, dose equivalent to 1 mg THC
[11] = test system: intraocular pressure (IOP) induced model of glaucoma; assay: Rabbit glaucoma model, IOP lowering after topical instillation; settings: for Peak IOP drop, IOP as % of the baseline IOP: 50 μL topical
[12] = In vivo ocular bioavailability of THC after topical formulations
[13] = THC-Val-HS 0.25% w/v in 0.1% Cremophor RH 40 + 0.02% BAK + 0.1% EDTA + 0.5% HPMC, 1 Hour
[14] = THC-Val-HS 0.26% w/v in 2.5% HPβCD + 0.5% HPMC, 1 Hour
[15] = THC-Val-HS 0.26% w/v in 2.5% HPβCD + 0.5% HPMC, 3 Hours
[16] = THC-Val-HS 10% w/w Ocular Film, 1 Hour
[17] = THC-Val-HS 10% w/w Ocular Film, 3 Hours

CCCCCc1cc(OC(=O)C(NC(=O)CCC(=O)O)C(C)C)c2c(c1)OC(C)(C)C1CCC(C)=CC21 (stereo not drawn) [THC-Valinate-HS (15), THC-valinate-hemisuccinate]
Aqueous Solubility ([1]; H20): 8.50 ± 6.00 µg/mL
Aqueous Solubility ([1]; Water): 16.54 ± 11.69 µM
Aqueous Solubility ([1]; pH 1.2): 0.06 ± 0.03 µg/mL
Aqueous Solubility ([1]; pH 1.2, listed as THC-Valine-HS): 0.12 ± 0.06 µM
Aqueous Solubility ([1]; pH 2): 0.09 ± 0.03 µg/mL
Aqueous Solubility ([1]; pH 2, listed as THC-Valine-HS): 0.17 ± 0.06 µM
Aqueous Solubility ([1]; pH 5): 0.35 ± 0.02 µg/mL
Aqueous Solubility ([1]; pH 5, listed as THC-Valine-HS): 0.67 ± 0.04 µM
Aqueous Solubility ([1]; pH 6): 12.74 ± 1.80 µg/mL
Aqueous Solubility ([1]; pH 6, listed as THC-Valine-HS): 24.80 ± 3.51 µM
Aqueous Solubility ([1]; pH 7): 155.67 ± 31.19 µg/mL
Aqueous Solubility ([1]; pH 7, listed as THC-Valine-HS): 303.06 ± 60.72 µM
Aqueous Solubility ([1]; pH 8): 117.04 ± 10.91 µg/mL
Aqueous Solubility ([1]; pH 8, listed as THC-Valine-HS): 227.86 ± 21.24 µM
Aqueous Solubility ([1]; pH 9): 0.02 ± 0.00 µg/mL
Aqueous Solubility ([1]; pH 9, listed as THC-Valine-HS): 0.05 ± 0.00 µM
First order rate constant ([2]; Buffer pH 5.0, 25° C.): Stable
First order rate constant ([2]; Buffer pH 7.0, 25° C.): Stable
First order rate constant ([2]; Buffer pH 9.0, 25° C.): Stable
First order rate constant ([2]; Water, 25° C.): Stable
Drug loading (%) [3]: 112.21 ± 4.99%
CBN content of the sample after heating ([3]; 120° C. for 10 min): 0 µg
Drug remaining ([3]; 120° C. for 10 min): 1350.13 ± 387.10 µg
THC content of the sample after heating ([3]; 120° C. for 10 min): 80.26 ± 8.59 µg
Drug remaining (%) ([3]; 120° C. for 10 min, % of initial): (96.29 ± 3.89) %
CBN content of the sample, initial ([3]; before heating): 0 µg
Initial, μg (drug itself) ([3]; before heating): 1411.49 ± 459.10 µg
THC content of the sample, initial ([3]; before heating): 96.52 ± 3.72 µg
K [4]: 85.54 ± 3.74 ×10^−2 min^−1
T1/2 [4]: 8.11 ± 0.35 min
K [5]: 2.96 ± 0.19 ×10^−3 min^−1
T1/2 [5]: 23.43 ± 1.49 min
K [6]: 0.40 ± 0.02 ×10^−3 min^−1
Dose dependence of THC blood levels from HME patches ([7]; swine, 5, 10, 20 mg formulations): dose dependant
11-OH-THC or carboxy metabolite THC-COOH in plasma ([7]; swine, buccal patch): not seen
THC levels in plasma from transmucosal HME patches ([7]; swine, buccal patch, listed as THC-Val-HS): Significant plasma THC levels were observed
maximum amount that could be dissolved ([8]; Tocrisolve emulsion): 0.97 % w/v
maximum amount that could be dissolved ([8]; micellar solution: HPβCD 15% + Cremophor RH 40 0.25% + BAK 0.01% + EDTA 0.1% + HPMC 0.5% w/v): 0.89 % w/v
Assay (as a % of theoretical amount) ([9]; 1 Month, 25° C./60% RH): 110.6 ± 0.1%
Assay (as a % of theoretical amount) ([9]; 1 Month, 40° C./75% RH): 80.9 ± 3.9%
Assay (as a % of theoretical amount) ([9]; 3 Month, 25° C./60% RH): 108.3 ± 4.6%
Assay (as a % of theoretical amount) ([9]; Initial): 108.4 ± 0.2%
Stability in the hot-melt-extruded formulation ([9]; three month stability data): stable
Blood levels after rectal administration [10]: significant blood levels
Peak IOP drop, IOP as % of the baseline IOP ([11]; Tocrisolve emulsion, 0.97% w/v THC-Val-HS): 53±3%
IOP-time profile compared with THC ([11]; at a lower dose): significantly better than that of THC
Duration of action (time taken for IOP to return to 90% of baseline) ([11]; both formulations): about 4 hours
time to peak IOP drop after instilling ([11]; micellar solution and Tocrisolve emulsion): ≤ 90 min
Peak IOP drop, IOP as % of the baseline IOP ([11]; micellar solution, 0.89% w/v THC-Val-HS): 62±3%
THC concentrations in aqueous humor, iris-ciliary bodies / anterior segment ocular tissues ([12]; 1 hour post topical application): significant THC concentrations
Total THC concentration, Aqueous Humor [12, 13]: 62.1 ± 12.6 ng/100 μL
Total THC concentration, Cornea [12, 13]: 1191.7 ± 231.1 ng/50 mg Tissue
Total THC concentration, Iris-Cilliary Body [12, 13]: 51.44 ± 19.5 ng/50 mg Tissue
Total THC concentration, Sclera [12, 13]: 913.4 ± 432.9 ng/250 mg Tissue
Total THC concentration, Aqueous Humor [12, 14]: 69.4 ± 16.7 ng/100 μL
Total THC concentration, Cornea [12, 14]: 1677.1 ± 172.1 ng/50 mg Tissue
Total THC concentration, Iris-Cilliary Body [12, 14]: 65.8 ± 15.9 ng/50 mg Tissue
Total THC concentration, Sclera [12, 14]: 882.2 ± 185.8 ng/250 mg Tissue
Total THC concentration, Aqueous Humor [12, 15]: 38.3 ± 10.2 ng/100 μL
Total THC concentration, Cornea [12, 15]: 1142.3 ± 415.9 ng/50 mg Tissue
Total THC concentration, Iris-Cilliary Body [12, 15]: 57.9 ± 16.1 ng/50 mg Tissue
Total THC concentration, Sclera [12, 15]: 241.8 ± 106.6 ng/250 mg Tissue
Total THC concentration, Aqueous Humor [12, 16]: 61.3 ± 32.1 ng/100 μL
Total THC concentration, Cornea [12, 16]: 1634.5 ± 756.5 ng/50 mg Tissue
Total THC concentration, Iris-Cilliary Body [12, 16]: 86.03 ± 38.2 ng/50 mg Tissue
Total THC concentration, Retina-Choroid [12, 16]: 17.02 ± 8.01 ng/50 mg Tissue
Total THC concentration, Sclera [12, 16]: 1891.2 ± 771.5 ng/250 mg Tissue
Total THC concentration, Aqueous Humor [12, 17]: 29.1 ± 14.2 ng/100 μL
Total THC concentration, Cornea [12, 17]: 1043.4 ± 614.4 ng/50 mg Tissue
Total THC concentration, Iris-Cilliary Body [12, 17]: 104.2 ± 41.2 ng/50 mg Tissue
Total THC concentration, Retina-Choroid [12, 17]: 11.9 ± 4.9 ng/50 mg Tissue
Total THC concentration, Sclera [12, 17]: 812.6 ± 501.4 ng/250 mg Tissue
